Results: US6774143B1, “Method for treating cells resistant to antineoplastic agents” (Novartis AG, priority 2003, dated 2004)

Tests used:
[1] = Toxicity in non-tumor bearing naive nude mice (body weight); format: in vivo; details: for body weight change: naive mice
Protocol: To assess toxicity of discodernolide on non-tumor bearing animals, four groups of 8 naive nude mice are dosed with the compound, iv, once (5 mg/kg, 7.5 mg/kg, 10 mg/kg, or 15 mg/kg). The control group is dosed with the vehicle alone (16.7% Cremophor EL, 8.3% ethanol and 75% D5W). Body weights are recorded once weekly.

[2] = test system: HCT-15 human colon tumor xenograft; experiment: Subcutaneous HCT-15 colon tumor model in athymic nude mice; format: in vivo; details: for body weight losses, highest reached: 2.5-15 mg/kg
Excerpt: All cell lines that are used in animal studies are free of Mycoplasma contamination (Rapid Detection System by Gen-Probe, Inc., San Diego, Calif.) and viral contamination (MAP testing by MA BioServices, Inc., Rockville, Md.). The HCT-15 human colon tumor cell line is purchased from the American Type Culture Collection, Rockville, Md., Accession Number ATCC CCL 225. The MIP 101 human colon tumor cell line is obtained from Dr. R. Kramer (Bristol Meyers Squibb) and was previously described (Niles R M, et al. Cancer Invest. 1987;5(6):545-52). These cells are Pgp-1 (human Pgp) overexpressors, making the cells resistant to paclitaxel. All cell lines are propagated and expanded in RPMI 1640 medium containing 10% heat-inactivated FBS (Life Technologies, Grand Island, N.Y.). Cell expansions for implantation are performed in T225 tissue culture flasks. Cells are harvested at 70-90% confluency, washed once with HBSS containing 10% FBS, and are suspended in plain HBSS.
Outbred athymic (nu/nu) female mice (“Hsd:Athymic Nude-nu” from Harlan Sprague Dawley, Indianapolis, Ind.) are anesthetized with Metofane (Mallinckrodt Veterinary, Inc., Mundelein, Ill.,). A cell suspension (100 μL) containing 1×10^6 cells is then injected sc into the right axillary (lateral) region of each animal. Tumors are allowed to grow until a volume of approximately 100 mm^3 was achieved. At this point, mice bearing tumors are sorted into groups of eight for the study. The sorting process produced groups balanced with respect to mean and range of tumor size.
Discodermolide is isolated from the sponge Discodermia dissoluta using the methods of (Gunasekera S P, et al. supra). Multiple batches of compound of similar purity (all>95% pure, as determined by mass spectrometry, and nuclear magnetic resonance analysis) are used throughout the various studies. Solid discodermolide is dissolved in pure ethanol to create a stock solution which is diluted just before dosing with Cremophor EL (Crm) and D5W to a final concentration of 16.7% Cremophor EL, 8.3% ethanol and 75% D5W. The compound is administered intravenously (iv). In the first study discodermolide is tested against both tumors at five different dosing schedules: (i.) 30 mg/kg dosed as two 15 mg/kg injections on day 1 of the experiment, (ii.) 30 mg/kg dosed as three 10 mg/kg injections on days 1, 2, and 3, (iii.) 15 mg/kg dosed as a single injection on day 1, (iv.) 20 mg/kg dosed as a 15 mg/kg injection on day 1, followed by a 5 mg/kg injection on day 11, and (v.) 10 mg/kg dosed as a 7.5 mg/kg injection on day 1 followed by a 2.5 mg/kg injection on day 11. In the second study discodermolide is dosed as one injection on the first day of the experiment, at 2.5 mg/kg, 5 mg/kg, 7.5 mg/kg, 10 mg/kg, 12.5 mg/kg, or 15 mg/kg. In addition the 7.5 mg/kg injection on day 1 followed by a 2.5 mg/kg injection on day 11 is repeated from the first study. The actual doses, regimens and routes of administration used for the specific models are discussed in each section separately. Positive control animals receive clinical formulations of paclitaxel (TAXOL) diluted 4-fold with D5W and administered iv once daily for five consecutive days. Vehicle control for paclitaxel is administered according to paclitaxel's schedule. In the first study vehicle controls for discodermolide (16.7% Cremophor EL, 8.3% ethanol and 75% D5W) are administered as three daily injections on days 1, 2, and 3, or as two injections on days 1, and 11. In the second study vehicle control for discodermolide is administered as a single injection on day 1.
Tumors are measured, and individual animal body weights are recorded once weekly. Standard experiments are conducted for 3 full weeks from the initial dosing.
Antitumor activity is expressed as % T/C (comparing Δ tumor volumes for treatment group to vehicle control group). […]

1A9PTX22 cell line = details: cited from earlier work
[3] = first study, 7.5 mg/kg day 1 + 2.5 mg/kg day 11
[4] = first study, discodermolide iv single 15 mg/kg injection on day 1
[5] = first study, two 15 mg/kg injections on day 1 (30 mg/kg total)
[6] = second study, 7.5 mg/kg day 1 + 2.5 mg/kg day 11

C=C/C=C\[C@H](C)[C@H](OC(N)=O)[C@@H](C)[C@H](O)[C@@H](C)C/C(C)=C\[C@H](C)[C@@H](O)[C@@H](C)/C=C\[C@@H](O)C[C@@H]1OC(=O)[C@H](C)[C@@H](O)[C@H]1C [discodermolide, (+)-Discodermolide]
body weight lost ([1]; naive athymic nude mice, single injections, one week after dosing): no more than 4%
body weight change ([1]; single iv 5 mg/kg, one week after dosing): +8.7%
body weight change ([1]; single iv 5 mg/kg, three weeks after dosing): +9.4%
body weight change ([1]; single iv 5 mg/kg, two weeks after dosing): +9.4%
body weight change ([1]; single iv 7.5 mg/kg, one week after dosing): +1.2%
body weight change ([1]; single iv 7.5 mg/kg, three weeks after dosing): +7.7%
body weight change ([1]; single iv 7.5 mg/kg, two weeks after dosing): +3.2%
body weight change ([1]; single iv 10 mg/kg, one week after dosing): −1.2%
body weight change ([1]; single iv 10 mg/kg, three weeks after dosing): +5.6%
body weight change ([1]; single iv 10 mg/kg, two weeks after dosing): +1.2%
body weight change ([1]; single iv 15 mg/kg, one week after dosing): −4.1%
body weight change ([1]; single iv 15 mg/kg, three weeks after dosing): +5.90%
body weight change ([1]; single iv 15 mg/kg, two weeks after dosing): −0.4%
inhibition of tumor growth (in words) ([2]; HCT-15 xenograft, athymic nude mice): statistically significant (p<0.01) and reproducible inhibition of tumor growth
T/C [2, 3]: 31%
body weight loss [2, 3]: 17.3%
fate of the remaining four animals ([2]; first study, 15 mg/kg day 1 + 5 mg/kg day 11): sacrificed due to the excessive body weight loss
animals that die in the second week ([2]; first study, 15 mg/kg day 1 + 5 mg/kg day 11, group of eight): Four animals
fate of the animals ([2]; first study, 30 mg/kg as three 10 mg/kg injections on days 1, 2, 3, all animals): sacrificed in the beginning of the third week of the experiment due to excessive body weight loss
T/C [2, 4]: 43%
body weight loss [2, 4]: 18.9%
T/C [2, 5]: 22%
body weight loss [2, 5]: 24.6%
body weight losses, highest reached ([2]; original dose response study (second)): 13%
body weight losses, highest reached ([2]; repeat of the dose response study (third experiment)): 23%
T/C [2, 6]: 29%
body weight loss [2, 6]: 11.4%
T/C ([2]; second study, single injection 2.5 mg/kg day 1): 62%
body weight change ([2]; second study, single injection 2.5 mg/kg, gain): 3.5%
body weight change ([2]; second study, single injection 5 mg/kg): −1.9%
T/C ([2]; second study, single injection 5 mg/kg day 1): 44%
body weight change ([2]; second study, single injection 7.5 mg/kg): −7.9%
T/C ([2]; second study, single injection 7.5 mg/kg day 1): 43%
body weight change ([2]; second study, single injection 10 mg/kg): −8.5%
T/C ([2]; second study, single injection 10 mg/kg day 1): 40%
body weight change ([2]; second study, single injection 12.5 mg/kg): −12.9%
T/C ([2]; second study, single injection 12.5 mg/kg day 1): 28%
body weight change ([2]; second study, single injection 15 mg/kg): −11.0%
T/C ([2]; second study, single injection 15 mg/kg day 1): 27%
T/C ([2]; third study, single injection 2.5 mg/kg day 1): 54%
body weight change ([2]; third study, single injection 2.5 mg/kg, gain): 1.7%
body weight change ([2]; third study, single injection 5 mg/kg): −8.9%
T/C ([2]; third study, single injection 5 mg/kg day 1): 43%
body weight change ([2]; third study, single injection 7.5 mg/kg): −23.3%
T/C ([2]; third study, single injection 7.5 mg/kg day 1): 23%
body weight change ([2]; third study, single injection 10 mg/kg): −17.6%
T/C ([2]; third study, single injection 10 mg/kg day 1): 27%
body weight change ([2]; third study, single injection 12.5 mg/kg): −20.1%
T/C ([2]; third study, single injection 12.5 mg/kg day 1): 25%
body weight change ([2]; third study, single injection 15 mg/kg): −13.4%
T/C ([2]; third study, single injection 15 mg/kg day 1): 19%

CC(=O)O[C@H]1C(=O)[C@@]2(C)[C@H]([C@H](OC(=O)c3ccccc3)[C@]3(O)C[C@H](OC(=O)[C@H](O)[C@@H](NC(=O)c4ccccc4)c4ccccc4)C(C)=C1C3(C)C)[C@]1(OC(C)=O)CO[C@@H]1C[C@@H]2O [paclitaxel, reference compound]
fold less sensitive than 1A9 (reported) (1A9PTX22 cell line; PTX-22 subline): 20-30 fold
fold resistance of 1A9PTX22 versus parental 1A9 (1A9PTX22 cell line; in vitro, Giannakakou et al. 1997): 24 fold
T/C ([2]; first study, paclitaxel 15 mg/kg daily for the first 5 days): 95%
T/C ([2]; second study, paclitaxel iv once daily for five days): 94%
T/C ([2]; third study, paclitaxel iv once daily for five days): 81%
